Data set [1] is described as follows: Thermal stability by thermal gravimetric analysis (TGA). The data set is classed as physicochemical. As to the method: The thermal stability of samples of treprostinil erbumine salt, prepared as described above, and treprostinil free acid, purchased from a chemical supply company, are analyzed through thermal gravimetric analyses (TGA) performed on a TA Instruments TGA-Q5000 thermal gravimetric analyzer and differential scanning calorimetry (DSC) performed on a TA Instruments Q2000 differential scanning calorimeter. FIGS. 1 (erbumine salt) and 2 (free acid) show overlays of the TGA thermograms from 25-225° C. and the DSC thermograms from 25-300° C. […] DSC data for the erbumine salt show a single endothermic event (likely melt or decomposition) beginning at 143.73° C. and three endothermic events (71.17° C., 95.57° C., and 125.15° C.) for the free acid, corresponding to what is likely a hydrate along with at least two anhydrous crystal forms.

Data set [2] can be described thus: Hygroscopicity by dynamic vapor sorption/resorption, with XRD of samples from the adsorption/desorption process. Type of data set: physicochemical. The settings on record: for weight increase at the 80% relative humidity point: dried samples, sorption in 5% RH steps; for hygroscopicity classification: from weight increase at 80% relative humidity, European Pharmacopoeia monograph 5.11 definitions, experimental conditions differ; for physical form change on humidity exposure (XRD): samples collected at different points in the adsorption/desorption process. The protocol:
Hygroscopicity analyses of treprostinil erbumine salt, prepared as described above, and treprostinil sodium, purchased from a chemical supply company, are performed on a TA Instruments Q5000SA sorption analyzer. Hygroscopicity profiles are generated on dried samples at 25° C., increasing relative humidity by 5% up to 95%, then decreasing in 5% intervals back down to 5% relative humidity. The samples are equilibrated at each increment until weight percent change is <0.0100 for 5 min.

Structures are written as SMILES. Structures can show the parent of a compound that is named as a salt.

Turning to `CCCCC[C@H](O)CC[C@@H]1[C@H]2Cc3cccc(OCC(=O)O)c3C[C@H]2C[C@H]1O` [erbumine salt, 2-[[(1R,2R,3aS,9aS)-2-hydroxy-1-[(3S)-3-hydroxyoctyl]-2,3,3a,4,9,9a-hexahydro-1H-cyclopenta[g]naphthalen-5-yl]oxy]acetic acid t-butylamine], the TGA weight loss in data set [1] (between 25-100° C.) is recorded as 0.2318%. In addition, the “thermally stable up to” value in data set [1] (conclusion from TGA/DSC thermal characterization data) is “at least 100 °C”. For the same compound, the “weight increase at the 80% relative humidity point” value in data set [2] (25° C.) was less than 0.2%. Further, in data set [2], the hygroscopicity classification result is given as “non-hygroscopic to slightly hygroscopic” and the “physical form change on humidity exposure (XRD)” value is “did not show a physical form change”.
Compound `CCCCC[C@H](O)CC[C@@H]1[C@H]2Cc3cccc(OCC(=O)O)c3C[C@H]2C[C@H]1O` [free acid, (1R,2R,3aS,9aS)-[[2,3,3a,4,9,9a-Hexahydro-2-hydroxy-1-[(3S)-3-hydroxyoctyl]-1H-benz[f]inden-5-yl]oxy]acetic acid] returned a TGA weight loss in data set [1] (between 26-70° C.) of 1.090%.
As for `CCCCC[C@H](O)CC[C@@H]1[C@H]2Cc3cccc(OCC(=O)O)c3C[C@H]2C[C@H]1O` [sodium salt], in data set [2] (25° C., desorption in 5% RH steps from 95%), the “relative humidity at which desorption of water begins” value is 45 % RH. The “weight increase at the 80% relative humidity point” value in data set [2] (25° C.) is 25%. In data set [2], the hygroscopicity classification entry is recorded as “very hygroscopic” and the “physical form change on humidity exposure (XRD)” value was “non-reversible change to amorphous or poorly crystalline state”.

Values taken from patent publication US12102610B2, “Treprostinil salt” (Eli Lilly and Company, priority 2018, dated 2024).
